Experimental data taken from paper PMC10459042, “Synthesis of 1,2,3-Triazole-Containing Methoxylated Cinnamides and Their Antileishmanial Activity against the Leishmania braziliensis Species” (Pharmaceuticals, 2023).

Tests used:
Type in all cases: cell-based, Leishmania braziliensis
[1] = test system: L. braziliensis promastigotes; assay: Membrane permeability evaluation (propidium iodide); conditions: one IC50 value, 48 h at 24 °C
Procedure: L. braziliensis promastigotes (1 × 10^7 cells/mL) were incubated with Compound 28 (at a concentration corresponding to one IC50 value) for 48 h at 24 °C. After washing with PBS, parasites (3 × 10^6 cells/well) were incubated with 1.0 µg/mL PI (Sigma-Aldrich, St. Louis, MO, USA) in the dark for 15 min. The samples were analyzed using a fluorometer microplate reader (FLx800, BioTek Instruments, Winooski, VT, USA), with excitation and emission wavelengths of […], respectively. Parasites that were killed by heating to 65 °C for 10 min were used as controls for the membrane permeabilization. Parasites that were untreated or treated with Compound 28 and not labeled with the fluorescent probe were used as the sample blank.
Figure 5 Effect of Compound 28 on parasite membrane permeability. Parasite promastigotes were either left untreated or treated with Compound 28 (at a concentration corresponding to the IC50 value) for 48 h. The PI dye fluorescence was measured fluorometrically at excitation and emission wavelengths of 540 and 600 nm, respectively. Parasites heated at 65 °C for 10 min were used as a positive control. The data is presented as the fold increase in PI fluorescence relative to the untreated control. (***), signifying p < 0.001, indicates a statistically significant difference compared with the non-treated control.

[2] = test system: L. braziliensis-infected macrophages; assay: Treatment of infected macrophages; conditions: 48 h at 37 °C; for Number of Amastigotes per Cell after treatment: untreated 10.3; for Percentage of Infected Macrophages after Treatment: untreated 92.8
Procedure: Murine macrophages (5 × 10^5 cells) were plated on round glass coverslips in 24-well plates in RPMI 1640 medium with added 20% FBS and 20 mmol/L L-glutamine at pH 7.4 and incubated for 24 h at 37 °C in 5% CO2. Promastigotes were added to the wells (at a ratio of 10 parasites per macrophage), and cultures were incubated for 48 h at 37 °C in a 5% CO2 environment. Free parasites were removed by extensive washing with RPMI 1640 medium, and the infected macrophages were treated with Compound 28 or AmpB (0, 1.0, 2.5 and 5.0 µg/mL in both cases) for 48 h at 37 °C in 5% CO2.
To evaluate the inhibition of infection, promastigotes (5 × 10^6 cells) were first incubated with Compound 28 or AmpB (0, 1.0, 2.5 and 5.0 µg/mL in both cases) for 4 h at 24 °C; these were then used to infect murine macrophages (at a ratio of 10 parasites per macrophage) and incubated for 24 h at 37 °C in 5% CO2. Then, cells were fixed with 4% paraformaldehyde, washed, and stained with Giemsa. The percentage of infected macrophages and the number of recovered amastigotes were determined by counting 200 cells, in triplicate, using an optical microscope.

[3] = test system: L. braziliensis-infected macrophages; assay: ROS levels in Leishmania-infected macrophages (H2DCFDA); conditions: 5.0 µg/mL, 48 h at 37 °C
Procedure: Macrophages (1 × 10^6 cells/mL) were incubated in 96-well culture plates (Nunc, Nunclon, Roskilde, Denmark) and infected with L. braziliensis promastigotes (at a ratio of 10 parasites per cell). The infected macrophages were either left untreated or treated with Compound 28 (at a concentration of 5.0 µg/mL) for 48 h at 37 °C in 5% CO2. The cells were washed with PBS and incubated with 20 μmol/L H2DCFDA (Molecular Probes, Eugene, Oregon, USA) for 30 min in the dark. The fluorescence intensity was measured using a spectrofluorometer (FLx800; BioTek Instruments, Winooski, VT, USA) at 485 nm excitation and 528 nm emission. As a positive control, the infected macrophages were incubated with H2O2 at a concentration of 0.02 µg/mL (0.5 µmol/L). Parasites that were untreated with Compound 28 and not labeled with the fluorescent probe were used as the sample blank.
Figure 3 Production of ROS in L. braziliensis-infected macrophages treated with Compound 28. Leishmania braziliensis-infected macrophages (1 × 10^5 cells) were incubated with Compound 28 (5.0 µg/mL) for 48 h at 37 °C in a 5% CO2 environment. Subsequently, 2′,7′-dichlorodihydrofluorescein diacetate (H2DCFDA, 9.7 μg/mL) was added for 30 min under dark conditions. The fluorescence levels were measured in a spectrofluorometer at 485/528 nm. H2O2 (0.5 µmol/L) was used as a positive control. […]

SMILES: CCN(CC)c1ccc2cc(-n3cc(CNC(=O)/C=C/c4ccc(OC)c(OC)c4)nn3)c(=O)oc2c1 [Compound 28, N-((1-(7-(diethylamino)-2-oxo-2H-chromen-3-yl)-1H-1,2,3-triazol-4-yl)methyl) (3,4-dimethoxy) cinnamide]
- Fold increase in PI-fluorescence compared with untreated parasites [1]: 2.3 fold
- Number of Amastigotes per Cell after treatment ([2]; 1.0 µg/mL): 6.7
- Percentage of Infected Macrophages after Treatment ([2]; 1.0 µg/mL): 79.5%
- Number of Amastigotes per Cell after treatment ([2]; 2.5 µg/mL): 4.0
- Percentage of Infected Macrophages after Treatment ([2]; 2.5 µg/mL): 70.3%
- Number of Amastigotes per Cell after treatment ([2]; 5.0 µg/mL): 2.9
- Percentage of Infected Macrophages after Treatment ([2]; 5.0 µg/mL): 60.2%
- Increase in ROS levels in treated and infected cells compared with untreated cells [3]: 44.1%
